We go through 38 compounds from patent publication US9493461B2, “Tetracyclic heterocycle compounds and methods of use thereof for the treatment of hepatitis C” (priority 2013, dated 2016).

SMILES strings stand for the structures. Read-outs that look alike come from different tables or passages of the source.

Experiment [1] relates to HCV replicon genotype 1a. In words: HCV replicon assay, genotype 1a (cell ELISA for replicon-encoded NS3/4A). The experiment is classed as cell-based, hepatitis C virus (HCV). The method in brief:
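Stable G418-selected neomycin-resistant HCV replicon cells were plated with serially diluted compound without G418 and incubated 96 h. After washing and lysis, replicon RNA was measured indirectly by cell ELISA for replicon-encoded NS3/4A; IC50 from four-parameter fit relative to DMSO control.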
(In general: A replicon is a self-replicating genome or part of one, used to study replication in cells.)

Experiment [2] relates to HCV replicon genotype 1b. In words: HCV replicon assay, genotype 1b (cell ELISA for replicon-encoded NS3/4A). The experiment is classed as cell-based, hepatitis C virus (HCV). The gist of the method:
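Genotype 1b replicon cells (neomycin-selected, G418 removed for assay) incubated 96 h with compound dilution series. Replication measured by cell ELISA for replicon-encoded NS3/4A after lysis; IC50 from four-parameter fit relative to DMSO control.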

Setting [3] is: Hepatitis C virus, 96 h, read-out: 1a IC50 (nM), genotype 1a replicon cells, 96 hours incubation, NS3/4A ELISA readout, % of DMSO control.
Setting [4] is: Hepatitis C virus, 96 h, read-out: 1b IC50 (nM), genotype 1b replicon cells, 96 hours incubation, NS3/4A ELISA readout, % of DMSO control.

For `CNC(=O)c1c(-c2ccc(F)cc2)oc2cc(N(C)S(C)(=O)=O)c(-c3ccc4nc(CN5CCN6C(=O)OCC6C5)n5c6cccc(F)c6cc5c4n3)cc12` (stereo not shown) [Example 98], the IC50 in experiment [1] (setting [3]) worked out at 4.79 nM; in experiment [2] (setting [4]), 4.16 nM.
Take `CNC(=O)c1c(-c2ccc(F)cc2)oc2cc(N(C)S(C)(=O)=O)c(-c3ccc4nc(CN5CCC5(C)C)n5c6cccc(F)c6cc5c4n3)cc12` [Example 99]: the IC50 in experiment [1] (setting [3]) turned out to be 3.32 nM; in experiment [2] (setting [4]) it was 5.76 nM.
The like results for `CNC(=O)c1c(-c2ccc(F)cc2)oc2cc(N(C)S(C)(=O)=O)c(-c3ccc4nc(CN5CC[C@@H](OC)C5)n5c6cccc(F)c6cc5c4n3)cc12` [Example 100] were, in that order, 2.6 nM and 4.46 nM.
The like results for `CNC(=O)c1c(-c2ccc(F)cc2)oc2cc(N(C)S(C)(=O)=O)c(-c3ccc4nc(CN5C[C@H](F)[C@@H](F)C5)n5c6cccc(F)c6cc5c4n3)cc12` [Example 101] were, in that order, 3.13 nM and 4.24 nM.
The like results for `CNC(=O)c1c(-c2ccc(F)cc2)oc2cc(N(C)S(C)(=O)=O)c(-c3ccc4nc(CN5CC6CC6C5)n5c6cccc(F)c6cc5c4n3)cc12` (stereo not shown) [Example 102] were, in that order, 7.03 nM and 11.8 nM.
As to `CNC(=O)c1c(-c2ccc(F)cc2)oc2cc(N(C)S(C)(=O)=O)c(-c3ccc4nc(CN5CC(C)C5)n5c6cccc(F)c6cc5c4n3)cc12` [Example 103], the IC50 was 2.05 nM in experiment [1] (setting [3]) and 5.27 nM in experiment [2] (setting [4]).
The like results for `CNC(=O)c1c(-c2ccc(F)cc2)oc2cc(N(C)S(C)(=O)=O)c(-c3ccc4nc(CN5CC(C)(OC)C5)n5c6cccc(F)c6cc5c4n3)cc12` [Example 104] were, in that order, 2.31 nM and 5.23 nM.
The like results for `CNC(=O)c1c(-c2ccc(F)cc2)oc2cc(N(C)S(C)(=O)=O)c(-c3ccc4nc(CN5CCN(C(C)=O)CC5)n5c6cccc(F)c6cc5c4n3)cc12` [Example 105] were, in that order, 2.6 nM and 3.79 nM.
The like results for `CNC(=O)c1c(-c2ccc(F)cc2)oc2cc(N(C)S(C)(=O)=O)c(-c3ccc4nc(CN5CCC(F)(C#N)CC5)n5c6cccc(F)c6cc5c4n3)cc12` [Example 106] were, in that order, 7.25 nM and 8.2 nM.
For the compound `CNC(=O)c1c(-c2ccc(F)cc2)oc2cc(N(C)S(C)(=O)=O)c(-c3ccc4nc(CN5CC(S(C)(=O)=O)C5)n5c6cccc(F)c6cc5c4n3)cc12` [Example 107], the IC50 in experiment [1] (setting [3]) was 3.33 nM; in experiment [2] (setting [4]) it was 3.04 nM.
For the compound `CNC(=O)c1c(-c2ccc(F)cc2)oc2cc(N(C)S(C)(=O)=O)c(-c3ccc4nc(CN5CCN(C)CC5)n5c6cccc(F)c6cc5c4n3)cc12` [Example 108], the figures for the IC50 in experiment [1] (setting [3]) and in experiment [2] (setting [4]) were 6.08 nM and 8.48 nM, respectively.
The like results for `CNC(=O)c1c(-c2ccc(F)cc2)oc2cc(N(C)S(C)(=O)=O)c(-c3ccc4nc(CN5CC6CC5CO6)n5c6cccc(F)c6cc5c4n3)cc12` (stereo not shown) [Example 109] were, in that order, 8.1 nM and 11.2 nM.
For `CNC(=O)c1c(-c2ccc(F)cc2)oc2cc(N(C)S(C)(=O)=O)c(-c3ccc4nc(CN5CC(F)(C#N)C5)n5c6cccc(F)c6cc5c4n3)cc12` [Example 110], the IC50 in experiment [1] (setting [3]) worked out at 4.04 nM; in experiment [2] (setting [4]), 5.51 nM.
For `CNC(=O)c1c(-c2ccc(F)cc2)oc2cc(N(C)S(C)(=O)=O)c(-c3ccc4nc(CN)n5c6cccc(F)c6cc5c4n3)cc12` [Example 111], in that order: 4.15 nM and 7.79 nM.
For `CNC(=O)c1c(-c2ccc(F)cc2)oc2cc(N(C)S(C)(=O)=O)c(-c3cc4c(cn3)nc(CN3CCOCC3)n3c5cccc(F)c5cc43)cc12` [Example 112], the IC50 in experiment [1] (setting [3]) stood at 2.02 nM; in experiment [2] (setting [4]) it was 3.45 nM.
Regarding `CNC(=O)c1c(-c2ccc(F)cc2)oc2cc(N(C)S(C)(=O)=O)c(-c3ccc4nc(CN(C)CC(=O)N(C)C)n5c6cccc(F)c6cc5c4n3)cc12` [Example 115], the values for the IC50 in experiment [1] (setting [3]) and in experiment [2] (setting [4]) were 2.19 nM and 4.93 nM, respectively.
The like results for `CNC(=O)c1c(-c2ccc(F)cc2)oc2cc(N(C)S(C)(=O)=O)c(-c3ccc4nc(Cn5cncn5)n5c6cccc(F)c6cc5c4n3)cc12` [Example 116] were, in that order, 1.88 nM and 1.7 nM.
For `CNC(=O)c1c(-c2ccc(F)cc2)oc2cc(N(C)S(C)(=O)=O)c(-c3cc4c(cn3)nc(CN3CCC(F)(F)C3)n3c5cccc(F)c5cc43)cc12` [Example 117], in that order: 3.49 nM and 5.01 nM.
The like results for `CNC(=O)c1c(-c2ccc(F)cc2)oc2cc(N(C)S(C)(=O)=O)c(-c3cc4c(cn3)nc(CN3CC(C)(F)C3)n3c5cccc(F)c5cc43)cc12` [Example 118] were, in that order, 2.67 nM and 4.24 nM.
For `CNC(=O)c1c(-c2ccc(F)cc2)oc2cc(N(C)S(C)(=O)=O)c(-c3cc4c(cn3)nc(CN3CC(C)(C#N)C3)n3c5cccc(F)c5cc43)cc12` [Example 119], the IC50 in experiment [1] (setting [3]) was 1.74 nM; in experiment [2] (setting [4]) it was 3.59 nM.
For `CNC(=O)c1c(-c2ccc(F)cc2)oc2cc(N(C)S(C)(=O)=O)c(-c3ccc4nc(CN5CC(F)C5)n5c6cccc(C#N)c6cc5c4n3)cc12` [Example 120], in that order: 1.67 nM and 2.01 nM.
The like results for `CNC(=O)c1c(-c2ccc(F)cc2)oc2cc(N(C)S(C)(=O)=O)c(-c3ccc4nc(CN5CC[C@@H](F)C5)n5c6cccc(C#N)c6cc5c4n3)cc12` [Example 121] were, in that order, 2.95 nM and 3.25 nM.
For `CNC(=O)c1c(-c2ccc(F)cc2)oc2cc(N(C)S(C)(=O)=O)c(-c3ccc4nc(CN5CCC(F)(F)C5)n5c6cccc(C#N)c6cc5c4n3)cc12` [Example 122], in that order: 2.44 nM and 3.46 nM.
With `CNC(=O)c1c(-c2ccc(F)cc2)oc2cc(N(C)S(C)(=O)=O)c(-c3ccc4nc(CN5CCC(F)(F)CC5)n5c6cccc(C#N)c6cc5c4n3)cc12` [Example 123], the IC50 in experiment [1] (setting [3]) was 6.91 nM; in experiment [2] (setting [4]), 5.8 nM.
For `CNC(=O)c1c(-c2ccc(F)cc2)oc2cc(N(C)S(C)(=O)=O)c(-c3ccc4nc(CN5CC(F)(F)C5)n5c6cccc(C#N)c6cc5c4n3)cc12` [Example 124], in that order: 1.89 nM and 1.76 nM.
The like results for `CNC(=O)c1c(-c2ccc(F)cc2)oc2cc(N(C)S(C)(=O)=O)c(-c3ccc4nc(CN5CC(OC)C5)n5c6cccc(C#N)c6cc5c4n3)cc12` [Example 125] were, in that order, 2.32 nM and 3.21 nM.
For `CNC(=O)c1c(-c2ccc(F)cc2)oc2cc(N(C)S(C)(=O)=O)c(-c3ccc4nc(CN5CC(C)(OC)C5)n5c6cccc(C#N)c6cc5c4n3)cc12` [Example 126], in that order: 2.24 nM and 2.72 nM.
On to `CNC(=O)c1c(-c2ccc(F)cc2)oc2cc(N(C)S(C)(=O)=O)c(-c3ccc4nc(CN5CC6(CCOCC6)C5)n5c6cccc(C#N)c6cc5c4n3)cc12` [Example 127], for which the IC50 in experiment [1] (setting [3]) stood at 1.5 nM; in experiment [2] (setting [4]), 2.57 nM.
The like results for `CNC(=O)c1c(-c2ccc(F)cc2)oc2cc(N(C)S(C)(=O)=O)c(-c3ccc4nc(CN5CC(C)(F)C5)n5c6cccc(C#N)c6cc5c4n3)cc12` [Example 128] were, in that order, 2.3 nM and 2.98 nM.
For `CNC(=O)c1c(-c2ccc(F)cc2)oc2cc(N(C)S(C)(=O)=O)c(-c3ccc4nc(CN5CCOC(C(F)(F)F)C5)n5c6cccc(C#N)c6cc5c4n3)cc12` (stereo not shown) [Example 129], in that order: 5.68 nM and 6.95 nM.
With `CNC(=O)c1c(-c2ccc(F)cc2)oc2cc(N(C)S(C)(=O)=O)c(-c3ccc4nc(CN5CC(C)(C#N)C5)n5c6cccc(C#N)c6cc5c4n3)cc12` [Example 130], the IC50 in experiment [1] (setting [3]) was 1.22 nM; in experiment [2] (setting [4]), 1.39 nM.
The like results for `CNC(=O)c1c(-c2ccc(F)cc2)oc2cc(N(C)S(C)(=O)=O)c(-c3ccc4nc(CN5CC(O)(C(F)(F)F)C5)n5c6cccc(C#N)c6cc5c4n3)cc12` [Example 131] were, in that order, 4.09 nM and 4.23 nM.
`CNC(=O)c1c(-c2ccc(F)cc2)oc2cc(N(C)S(C)(=O)=O)c(-c3ccc4nc(CC5CC[C@H](OC)C5)n5c6cccc(C#N)c6cc5c4n3)cc12` (stereo partly shown) [Example 132]: the IC50 in experiment [1] (setting [3]) was 2.83 nM; in experiment [2] (setting [4]), 3.5 nM.
The like results for `CNC(=O)c1c(-c2ccc(F)cc2)oc2cc(N(C)S(C)(=O)=O)c(-c3ccc4nc(CC5CC[C@@H](OC)C5)n5c6cccc(C#N)c6cc5c4n3)cc12` (stereo partly shown) [Example 133] were, in that order, 2.98 nM and 3.56 nM.
Take `CNC(=O)c1c(-c2ccc(F)cc2)oc2cc(N(C)S(C)(=O)=O)c(-c3ccc4nc(CN5CCOCC5)n5c6cccc(C#N)c6cc5c4n3)cc12` [Example 134]: the IC50 in experiment [1] (setting [3]) is 2.6 nM; in experiment [2] (setting [4]), 2.02 nM.
Take `CNC(=O)c1c(-c2ccc(F)cc2)oc2cc(N(C)S(C)(=O)=O)c(-c3ccc4nc(CN5CC[C@@H](F)C5)n5c6cccc(C#N)c6cc5c4n3)cc12` [Example 135]: the IC50 stood at 2.71 nM in experiment [1] (read-out: 1a IC50, genotype 1a replicon cells, 96 hours incubation, NS3/4A ELISA readout, % of DMSO control) and 3.66 nM in experiment [2] (read-out: 1b IC50, genotype 1b replicon cells, 96 hours incubation, NS3/4A ELISA readout, % of DMSO control).
For the compound `CNC(=O)c1c(-c2ccc(F)cc2)oc2cc(N(C)S(C)(=O)=O)c(-c3ccc4nc(CN5CC(CC(F)(F)F)C5)n5c6cccc(C#N)c6cc5c4n3)cc12` [Example 136], the IC50 in experiment [1] (setting [3]) worked out at 6.6 nM; in experiment [2] (setting [4]), 10.6 nM.
For `CNC(=O)c1c(-c2ccc(F)cc2F)oc2cc(N(C)S(C)(=O)=O)c(-c3ccc4nc(CC5CC6(CNC(=O)C6)C5)n5c6cccc(F)c6cc5c4n3)cc12` (stereo not shown) [Example 137], in that order: 6.67 nM and 5.04 nM.
